Series [1] deals with Dihydroorotate dehydrogenase (quinone), mitochondrial (Homo sapiens, UniProt Q02127). Description: Inhibition of His fused human DHODH expressed in Escherichia coli using DHO as substrate by DCIP absorbance based colorimetry assay.
Series [2] concerns MOLM-13. Kind of series: Antiproliferative activity against human MOLM-13 cells incubated for 72 hrs by CellTiter-Glo assay. In kind it is functional, cell-based. The following applies: MOLM-13, 72 h. (Cellular ATP, detected with luciferase, serves as a proxy for viable cell number.)
A short description of series [3]: Solubility of compound at pH 7 by HPLC analysis. In kind it is physicochemical. The following applies: buffer.
Series [4] can be described thus: Metabolic stability in human liver microsome assessed as intrinsic clearance pretreated for 5 mins followed by NADPH addition and measured upto 60 mins by HPLC-MS/MS analysis. The following applies: microsomes, 1.083 h, time < 65 min. Format: ADME. On the technique in general: Microsomes from liver hold many membrane-bound enzymes, among them those of drug oxidation.

In series [5] the test system is MDR1. Kind of series: Efflux ratio of apparent permeability across basolateral to apical side over apical to basolateral side in dog MDCK-MDR1 cells. Format: ADME, cell-based, Canis lupus familiaris.
A short description of series [6]: Stability in human hepatocytes assessed as intrinsic clearance measured per 10^6 cells incubated upto 120 mins by LC-MS/MS analysis. In kind it is ADME, cell-based, Hepatocyte. The following applies: 2 h.

pIC50: −log10 of the molar value. Converted amounts (≈) assume the structure as drawn.

Sequence of Dihydroorotate dehydrogenase (quinone), mitochondrial (Q02127 whole entry, the tested form may be a part): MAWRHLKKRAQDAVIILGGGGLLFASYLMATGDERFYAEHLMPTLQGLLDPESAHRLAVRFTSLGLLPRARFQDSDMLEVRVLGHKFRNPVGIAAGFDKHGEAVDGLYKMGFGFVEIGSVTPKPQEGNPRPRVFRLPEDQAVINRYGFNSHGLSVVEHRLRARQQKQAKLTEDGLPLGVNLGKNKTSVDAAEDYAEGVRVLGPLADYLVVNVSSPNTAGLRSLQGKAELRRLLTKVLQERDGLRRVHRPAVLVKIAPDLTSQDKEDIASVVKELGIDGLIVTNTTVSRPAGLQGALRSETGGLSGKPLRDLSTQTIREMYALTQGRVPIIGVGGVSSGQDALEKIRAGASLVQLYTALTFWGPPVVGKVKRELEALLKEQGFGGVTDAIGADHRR

For `CCn1c(CO)nn(-c2nc(O[C@@H](C)C(F)(F)F)c(C(=O)Nc3c(C)cnc(OC)c3C)cc2F)c1=O`, the pIC50 – broadly, the negative decadic logarithm of the IC50, by convention in mol/L – in series [1] is 9.25; in series [2], 8.68. Besides, the concentration in solution in series [3] (solubility) was 373 µM (≈ 197 µg/mL). In series [4], the CLH was under 7.7 µL/min/mg. The efflux ratio (commonly the permeability from basolateral to apical divided by that in the opposite direction, in the common usage) in series [5] was over 30.
In the case of `CCn1c(CO)nn(-c2nc(NC(C)C)c(C(=O)Nc3c(F)cccc3Cl)cc2F)c1=O`, the pIC50 was 5.44 in series [1] and 6.70 in series [2].
For `CCn1c(CO)nn(-c2nc(OC3CCOC3)c(C(=O)Nc3c(F)cccc3Cl)cc2F)c1=O` (racemic) the same measures were 7.49 and 7.60.
For the compound `CCn1c(CO)nn(-c2nc(OC3CC(F)(F)C3(F)F)c(C(=O)Nc3c(F)cccc3Cl)cc2F)c1=O` (stereo not drawn), the pIC50 in series [1] is 7.66; in series [2], 7.70.
For the compound `CCn1c(CO)nn(-c2nc(O[C@@H](C)C(F)(F)F)c(C(=O)Nc3c(C)ccnc3F)cc2F)c1=O`, the values for the pIC50 in series [1] and in series [2] were 8.62 and 8.30, respectively. In addition, in series [3], the solubility (usually the dissolved amount per volume that the medium holds) came to 61 µM (≈ 30.6 µg/mL). Further, the values for the CLH in series [4] and in series [6] were 14 µL/min/mg and 61 µL/min/1e6 cells, respectively.
Take `CCn1c(CO)nn(-c2nc(O[C@@H](C)C(F)(F)F)c(C(=O)Nc3c(F)cncc3Cl)cc2F)c1=O`: the pIC50 is 8.64 in series [1] and 8.44 in series [2].
As to `CCn1c(CO)nn(-c2nc(O[C@@H](C)C(F)(F)F)c(C(=O)Nc3ncccc3Cl)cc2F)c1=O`, the pIC50 in series [1] is 8.28; in series [2], 8.16. The concentration in solution in series [3] (solubility) was 98 µM (≈ 49.5 µg/mL). For the same compound, the CLH in series [4] amounted to 9.1 µL/min/mg.
`CCn1c(CO)nn(-c2nc(O[C@@H](C)C(F)(F)F)c(C(=O)Nc3c(C)ccnc3C(F)F)cc2F)c1=O`: the pIC50 in series [1] was 8.62; in series [2], 8.40. Moreover, the solubility in series [3] was over 400 µM. The CLH in series [4] is under 7.7 µL/min/mg; in series [6] it was over 400 µL/min/1e6 cells.
For `CCn1c(CO)nn(-c2nc(O[C@@H](C)C(F)(F)F)c(C(=O)Nc3c(Cl)ccnc3Cl)cc2F)c1=O` the same measures were 9.22, 9.15, 381 µM (≈ 205 µg/mL), 14 µL/min/mg and 381 µL/min/1e6 cells.
For the compound `CCn1c(CO)nn(-c2nc(O[C@@H](C)C(F)(F)F)c(C(=O)Nc3cccnc3Cl)cc2F)c1=O`, the pIC50 in series [1] was 8.55; in series [2] it was 8.19. In series [3], this compound gave a solubility of under 4 µM. In series [4], the CLH is under 8 µL/min/mg.
Regarding `CCn1c(CO)nn(-c2nc(O[C@@H](C)C(F)(F)F)c(C(=O)Nc3ccnc(OC)c3Cl)cc2F)c1=O`, the results for the pIC50 in series [1] and in series [2] were 7.96 and 7.89, respectively. Besides, in series [4], the CLH was under 7.7 µL/min/mg.
In the case of `CCn1c(CO)nn(-c2nc(O[C@@H](C)C(F)(F)F)c(C(=O)Nc3c(F)cnc(OC)c3Cl)cc2F)c1=O`, the pIC50 in series [1] is 8.96; in series [2], 8.85. In series [3], this compound had a solubility of under 4 µM. For the same compound, the CLH in series [4] was under 7.7 µL/min/mg.
For `CCn1c(CO)nn(-c2nc(OC(C)C)c(C(=O)Nc3c(F)cccc3Cl)cc2F)c1=O` the same measures were 9.30, 9.70, 4 µM (≈ 1.87 µg/mL) and under 7.7 µL/min/mg.
`CCC(C)Nc1nccc(-c2cnc3sc(C)cn3c2=O)n1` (stereo not drawn): the pIC50 in series [1] is 5.85.
In the case of `CCn1c(CO)nn(-c2nc(O[C@@H](C)C(F)(F)F)c(C(=O)Nc3c(Cl)ccnc3OC)cc2F)c1=O`, the pIC50 in series [1] and in series [2] was 9.52 throughout. Besides, the concentration in solution in series [3] (solubility) came to 51 µM (≈ 27.3 µg/mL). Further, the CLH was 10 µL/min/mg in series [4] and 51 µL/min/1e6 cells in series [6].
For the compound `CCn1c(CO)nn(-c2nc(O[C@@H](C)C(F)(F)F)c(C(=O)Nc3c(Cl)ccnc3C)cc2F)c1=O`, the pIC50 was 8.72 in series [1] and 8.28 in series [2]. Further, the solubility in series [3] is over 400 µM. Further, the CLH was under 7.7 µL/min/mg in series [4] and over 400 µL/min/1e6 cells in series [6].
As for `CCn1c(CO)nn(-c2nc(O[C@@H](C)C(F)(F)F)c(C(=O)Nc3c(F)cccc3Cl)cc2F)c1=O`, the pIC50 in series [1] was 9.70; in series [2] it was 9.80. The same compound returned a solubility in series [3] of under 4 µM. For the same compound, in series [4], the CLH came out at 10 µL/min/mg.
For `CCn1c(CO)nn(-c2nc(O[C@@H](C)C(F)(F)F)c(C(=O)Nc3ccc(C)nc3Cl)cc2F)c1=O`, the pIC50 is 7.85 in series [1] and 7.89 in series [2].
Turning to `CCn1c(CO)nn(-c2nc(SC(C)C)c(C(=O)Nc3c(F)cccc3Cl)cc2F)c1=O`, the pIC50 was 6.52 in series [1] and 9.72 in series [2]. The CLH in series [4] is 15 µL/min/mg.
Regarding `CCn1c(CO)nn(-c2nc(O[C@@H](C)C(F)(F)F)c(C(=O)Nc3ccccc3F)cc2F)c1=O`, the values for the pIC50 in series [1] and in series [2] were 8.21 and 8.30, respectively. Moreover, the CLH in series [4] is under 8 µL/min/mg.
Consider `CCn1c(CO)nn(-c2nc(O[C@@H](C)C(F)(F)F)c(C(=O)Nc3ccncc3Cl)cc2F)c1=O`, for which the negative-log IC50 (pIC50) in series [1] is 7.64; in series [2] it was 7.21. Also, in series [3], the solubility is under 4 µM. For the same compound, the CLH in series [4] worked out at 15 µL/min/mg.
With `CCn1c(CO)nn(-c2nc(O[C@@H](C)C(F)(F)F)c(C(=O)Nc3cc(OC)ncc3C)cc2F)c1=O`, the pIC50 in series [1] is 8.00; in series [2], 7.59. For the same compound, in series [5], the efflux ratio turned out to be 17.
`CCn1c(CO)nn(-c2nc(O[C@@H](C)C(F)(F)F)c(C(=O)Nc3cc(C)cnc3Cl)cc2F)c1=O`: the negative-log IC50 (pIC50) in series [1] was 8.24; in series [2], 7.30.
Take `CCn1c(CO)nn(-c2nc(O[C@@H](C)C(F)(F)F)c(C(=O)Nc3c(C)cc(OC)nc3Cl)cc2F)c1=O`: the pIC50 in series [1] was 9.10; in series [2] it was 8.52. The efflux ratio in series [5] is over 30.
Take `CCn1c(CO)nn(-c2nc(O[C@@H](C)C(F)(F)F)c(C(=O)Nc3cnccc3Cl)cc2F)c1=O`: the figures for the pIC50 in series [1] and in series [2] were 8.33 and 8.03, respectively. The CLH in series [4] was found to be 45 µL/min/mg.
With `CCn1c(CO)nn(-c2nc(O[C@@H](C)C(F)(F)F)c(C(=O)Nc3c(F)cnc(OC)c3C#N)cc2F)c1=O`, the pIC50 in series [1] is 7.80; in series [2] it was 9.00. In series [5], the efflux ratio was over 30.

The values are drawn from ChEMBL document CHEMBL5137081, “N-Heterocyclic 3-Pyridyl Carboxamide Inhibitors of DHODH for the Treatment of Acute Myelogenous Leukemia” (J Med Chem, 2022).
